The target of assay [1] is T1, Farnesyl-protein transferase (Bos taurus, UniProt P29702+P49355).
T1 construct: Farnesyl-protein transferase from bovine brain; from tissue; host or cells: bovine brain, partially purified (DEAE-Sephacel, N-octyl agarose, mono Q HPLC)
Kind of assay: Inhibition of Ras farnesylation in vitro by farnesyl-protein transferase (FTase). In kind it is biochemical. Conditions: partially purified bovine brain FTase; Ras-CVLS 3.5 μM, [3H]FPP 0.25 μM; averages of 2-5 determinations. The method, then:
The farnesyl pyrophosphate analog compounds of this invention were tested as follows for their ability to inhibit Ras farnesylation in vitro. Farnesyl-protein transferase from bovine brain was chromatographed on DEAE-Sephacel (Pharmacia, 0-0.8M NaCl gradient elution), N-octyl agarose (Sigma, 0-0.6M NaCl gradient elution), and a mono Q HPLC column (Pharmacia, 0-0.3M NaCl gradient). Ras-CVLS at 3.5 μM, 0.25 μM [^3 H]FPP, and the indicated compounds were incubated with this partially purified enzyme preparation.
The FTase data presented above are the averages of 2-5 determinations and reflect the ability of the test compounds to inhibit Ras farnesylation in vitro.

The subject of a further assay is HMG-CoA reductase. Conditions: cited from earlier work.
For a further assay, the system named is Ras farnesylation. Particulars: Hancock et al., Casey et al., Schafer et al.; cited from earlier work.

One may read the IC50 as the concentration needed to halve the response being measured. Low readings indicate inhibition by little substance, high ones a need for much substance. For `CC(C)=CCC/C(C)=C/CC/C(C)=C/CCC(O)CC(=O)O` (stereo not drawn) [Scheme 1, 3-Hydroxy-7,11,15-trimethylhexadeca-6,10,14-trienoic acid], the half-inhibitory concentration (IC50) in assay [1] amounted to 310 µM. Same read-out and setting: next, `CC(C)=CCC/C(C)=C/CC/C(C)=C/CCC(=O)CP(=O)(O)O` [Scheme 2, [2-Oxo-6,10,14-trimethylpentadeca-5,9,13-trienyl]phosphonic acid]: 62 µM; `CC(C)=CCC/C(C)=C/CC/C(C)=C/CCC(O)CP(=O)(O)O` (stereo not drawn) [Scheme 3, [2-Hydroxy-6,10,14-trimethylpentadeca-5,9,13-trienyl]phosphonic acid]: 100 µM. In the case of `CC(=O)C(C/C=C(\C)CC/C=C(\C)CCC=C(C)C)P(=O)(O)O` (stereo not drawn) [Scheme 4, [1-Acetyl-4,8,12-trimethyltrideca-3,7,11-trienyl]phosphonic acid], in assay [1], half-maximal inhibition (IC50) was put at 21 µM. This IC50 lies about 4.8-fold lower than the previous one. Still for that read-out and setting: next, `CC(C)=CCC/C(C)=C/CC/C(C)=C/CNC(=O)CP(=O)(O)O` [Scheme 5, [2-[(E,E)-3,7,11-Trimethyl-2,6,10-dodecatrienylamino]-2-oxo-ethyl]phosphonic acid]: 0.044 µM. Compound `CC(C)=CCC/C(C)=C/CC/C(C)=C/CCSCP(=O)(O)O` [Scheme 6, [(E,E)-4,8,12-trimethyl-3,7,11-tridecatrienyl]thiomethyl-phosphonic acid] came in with an IC50 in assay [1] of 100 µM. In the case of `CC[C@H](C)C(=O)O[C@H]1CCC=C2C=C[C@H](C)[C@H](CC[C@@H]3C[C@@H](O)CC(=O)O3)[C@H]21` [compactin], the “Inhibition of HMG-CoA reductase” value in the assay with HMG-CoA reductase is listed as “inhibit HMG-CoA reductase”. In addition, in the assay with Ras farnesylation, the “Inhibition of Ras farnesylation in vivo” value is reported as “Inhibition of Ras farnesylation in vivo has been demonstrated”. On to `CC[C@H](C)C(=O)O[C@H]1C[C@@H](C)C=C2C=C[C@H](C)[C@H](CC[C@@H]3C[C@@H](O)CC(=O)O3)[C@H]21` [lovastatin], for which the “Inhibition of HMG-CoA reductase” value in the assay on HMG-CoA reductase is reported as “inhibit HMG-CoA reductase”. For the same compound, the “Inhibition of Ras farnesylation in vivo” value in the assay on Ras farnesylation was “Inhibition of Ras farnesylation in vivo has been demonstrated”.

With “[1-Hydroxy-(E,E)-4,8,12-trimethyl-3,7,11-tridecatrienyl]phosphonic acid [Scheme 12]”, the IC50 in assay [1] was determined as 42 µM. In assay [1], “[2-[(E,E)-3,7,11-Trimethyl-2,6,10-dodecatrienylamino]-2-oxo-ethyl]phosphonic acid monomethyl ester, potassium salt [Scheme 8]” had a 50% inhibitory concentration (IC50) of 100 µM.

Values taken from patent US5362906A, “Farnesyl pyrophosphate analogs” (Merck & Co., Inc., priority 1993, dated 1994).
